{"source": "patent US20040023961A1", "about": "“Aryl ureas with raf kinase and angiogenisis inhibiting activity” (BAYER CORPORATION, priority 2002, published 2004)", "key": {"[1]": {"test_system": "neovascularization of the joint", "settings": "rat collagen arthritis model; Peacock et al. 1992; cited from earlier work"}, "Flk-1": {"target": "Flk-1 (Mus musculus, UniProt P35918)", "sequence (P35918 20-1345)": "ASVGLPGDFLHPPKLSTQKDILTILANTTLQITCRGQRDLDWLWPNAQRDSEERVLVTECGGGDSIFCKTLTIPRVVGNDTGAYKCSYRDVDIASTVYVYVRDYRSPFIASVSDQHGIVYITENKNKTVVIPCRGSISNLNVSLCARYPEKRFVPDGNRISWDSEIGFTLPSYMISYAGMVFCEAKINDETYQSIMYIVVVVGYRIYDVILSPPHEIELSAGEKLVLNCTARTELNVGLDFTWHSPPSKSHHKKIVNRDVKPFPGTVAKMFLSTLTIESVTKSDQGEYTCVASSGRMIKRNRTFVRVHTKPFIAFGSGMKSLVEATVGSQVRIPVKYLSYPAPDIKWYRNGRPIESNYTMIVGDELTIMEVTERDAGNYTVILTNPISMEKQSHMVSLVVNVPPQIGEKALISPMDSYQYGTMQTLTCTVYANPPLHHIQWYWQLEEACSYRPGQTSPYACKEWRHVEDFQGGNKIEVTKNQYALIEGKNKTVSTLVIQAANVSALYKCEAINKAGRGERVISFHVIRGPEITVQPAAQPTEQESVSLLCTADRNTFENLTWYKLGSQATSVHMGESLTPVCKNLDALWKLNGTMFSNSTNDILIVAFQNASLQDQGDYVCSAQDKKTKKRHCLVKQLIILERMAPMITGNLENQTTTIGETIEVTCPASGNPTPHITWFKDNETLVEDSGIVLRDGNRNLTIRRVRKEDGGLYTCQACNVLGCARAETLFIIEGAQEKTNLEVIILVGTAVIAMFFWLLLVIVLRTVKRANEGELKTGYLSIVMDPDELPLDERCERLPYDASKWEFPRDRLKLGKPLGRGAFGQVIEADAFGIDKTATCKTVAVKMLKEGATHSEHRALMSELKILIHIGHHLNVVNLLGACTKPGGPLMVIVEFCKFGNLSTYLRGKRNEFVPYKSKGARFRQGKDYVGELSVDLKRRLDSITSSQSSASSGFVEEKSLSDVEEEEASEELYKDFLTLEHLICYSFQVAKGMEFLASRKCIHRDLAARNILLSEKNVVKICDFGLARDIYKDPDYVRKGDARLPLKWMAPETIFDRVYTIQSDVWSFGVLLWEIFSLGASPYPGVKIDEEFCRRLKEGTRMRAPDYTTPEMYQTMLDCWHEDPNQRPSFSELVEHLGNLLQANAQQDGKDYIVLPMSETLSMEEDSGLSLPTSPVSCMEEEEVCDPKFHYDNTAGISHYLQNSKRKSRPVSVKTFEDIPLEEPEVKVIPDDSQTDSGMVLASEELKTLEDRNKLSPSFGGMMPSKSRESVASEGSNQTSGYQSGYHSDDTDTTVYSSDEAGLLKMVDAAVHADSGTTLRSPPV", "assay": "In Vitro Flk-1 ELISA Assay", "format": "biochemical, murine", "settings": "poly-Glu-Tyr coated plates, 3.3 μM ATP", "method": "In Vitro Flk-1 ELISA Assay\nThe Flk-1 ELISA assay was performed on 96-well Costar 9018 high-binding plates coated overnight with poly-Glu-Tyr (Sigma #P 0275). After coating, plates were washed with 20 mM HEPES pH=7.5, 150 mM NaCl, 0.1% Tween-20. These plates were then blocked with Blocking Buffer (20 mM HEPES pH=7.5, 150 mM NaCl, 1% BSA, 0.1% Tween-20) for 1 hr at room temperature on a plate shaker. After washing, the reaction was prepared using 20 mM HEPES pH=7.5, 100 mM KCl, 10 mM MgCl2, 3 mM MnCl2 0.05% glycerol, 0.005% Triton X-100, 1 mM BME and 3.3 μM ATP. The assay was initiated with Flk-1 giving a final enzyme concentration of 50 ng/well.\nThe reaction was incubated at room temperature for 1 hr on a plate shaker and was stopped by washing the plate. The primary antibody incubation step was for 1 hour at room temperature using PT66 phosphotyrosine antibody (Sigma 1:5000 dilution). After washing, the plate was then incubated (1 hr room temp) with the secondary antibody solution of anti-mouse HRP-conjugated antibody (Amersham 1:5000 dilution). After another wash step, plates were developed using 100 μL TMB substrate solution (KPL) and then quenched with KPL stop solution. These quenched plates were read at 450 nm on a Molecular Devices spectrophotomer plate reader. For IC50 generation, compounds were added prior to the enzyme initiation. […]"}}}
{"smiles": "CO[C@@H]1[C@H](OC(=O)NC(=O)CCl)CC[C@]2(CO2)[C@H]1[C@@]1(C)O[C@@H]1CC=C(C)C", "note": "[AGM-170]", "values": [{"measurement": "neovascularization of the joint", "setting": "[1]", "value": "prevent neovascularization of the joint"}]}
{"smiles": "Cc1ccc(-n2nc(C(C)(C)C)cc2NC(=O)Nc2ccc(OCCN3CCOCC3)c3ccccc23)cc1", "note": "[{[3-(tert-butyl)-1-(4-methylphenyl)pyrazol-5-yl]amino}-N-[4-(2-morpholin-4-ylethoxy)naphthyl]carboxamide]", "values": [{"measurement": "IC50", "setting": "Flk-1", "value": "< 1", "unit": "µM"}]}
